The values that follow come from patent US10005769B2, “2,3-dihydrobenzofuran-5YL compounds as DYRK kinase inhibitors” (4SC DISCOVERY GMBH, priority 2013, dated 2018).

What is called IC50 is the point on the concentration scale where inhibition reaches its midpoint.

For assay [1], the system named is Hedgehog signaling pathway (Gli Reporter - NIH3T3 cell line). The assay can be described thus: Hedgehog Reporter Assay (Gli-Reporter, luciferase, mSHH stimulated). The conditions noted are these: Mus musculus; Gli Reporter NIH3T3 cells, 1 μg/ml mSHH, 24 h. Format: cell-based, murine. Here is the method:
In order to investigate the potency of test compounds to inhibit the Hedgehog signaling pathway, a Gli-Reporter assay was performed. The “Gli Reporter-NIH3T3” cell line contains the firefly luciferase gene under the control of Gli responsive elements stably integrated into murine NIH3T3 cells (cells purchased from AMS Biotechnology ltd., 184 Milton Park, Abingdon OX14 4SE, U.K.). The luciferase expression correlates with activation of the hedgehog signaling pathway. This cell line is validated for its response to stimulation with murine Sonic Hedgehog and to treatment with inhibitors of the hedgehog signaling pathway. A multiplexed viability assay was used to discriminate inhibition on the pathway activity from cell toxicity. Growth Medium: DMEM (Dulbecco's Modified Eagle Medium); 10% Fetal Calf Serum; 1% Penicillin/Streptomycin; 500 μg/ml Geneticin (G418 Stock 50 mg/ml). Assay Medium: Opti-MEM® Reduced Serum Medium; 0.5% Calf Serum; 1% non-essential amino acids; 1 mM Na-pyruvate; 10 mM HEPES; 1% Penicillin/Streptomycin. 25,000 cells per well were seeded into a white 96 well plate in 100 μl growth medium and incubated over night at 37° C. and 5% CO2. After removing the supernatant the test compounds and controls were added in different concentrations in a final volume of 45 μl and incubated for 1 h at 37° C. and 5% CO2. For the stimulation of the Hedgehog pathway 5 μl of 10 μg/ml concentrated murine SHH (or mSHH; murine sonic hedgehog protein) was added to the cells. A final concentration of 1 μg/ml mSHH and 0.1% DMSO was reached per well. After incubation for 24 h at 37° C. the cells were investigated for viability and reporter activity. Viability: For the determination of the viability of the treated cells the CellTiter-FluorTM Kit from Promega comprising the fluorogenic, cell-permeant peptide substrate ([…]-aminofluorocoumarin GF-AFC was used. Roughly, only proteases of viable cells are able to cleave the GF-AFC. By this cleavage the fluorescent AFC is set free and can be detected in a fluorescence reader. For this assay 10 μl of GF-AFC substrate (CellTiter-FluorTM, Promega #G6082) was diluted in 2 ml assay buffer from the CellTiter-FluorTM Kit and 10 μl of this dilution was added per well to the cells and incubated for 30 min at 37° C. The fluorescence was measured with an excitation of 380-400 nm and an emission of 505 nm. Reporter activity: The firefly luciferase reporter activity was detected with the ONE-GloTM Luciferase Assay System from Promega. For this assay 50 μl ONE-Glo luciferase reagent (Promega #E6120, contains cell lysis buffer and luciferin) was added to each well and incubated at room temperature for 5 min. Luminescence was detected in a plate reader and served as a measure for reporter activity.
For orientation: A reporter such as luciferase makes a cellular process visible.

The target of assay [2] is DYRK1B (Homo sapiens (Human), UniProt Q9Y463). The assay can be described thus: DYRK1B Kinase Assay (33P ATP, DYRKtide substrate, Reaction Biology Corp.). Particulars: 0.3 nM DYRK1B, 20 μM DYRKtide, 10 μM ATP, 25° C., 120 min. Format: biochemical. The protocol: The assay was carried out by Reaction Biology Corp., […], Pa., USA according to specifications by Reaction Biology Corp., as detailed herein below and further described in Anastassiadis et al., Nature Biotechnology, 29 (2011) 1039-1045. The substrate DYRKtide (synthetic peptide RRRFRPASPLRGPPK) was dissolved in freshly prepared Base Reaction Buffer (20 mM Hepes (pH 7.5), 10 mM MgCl2, 1 mM EGTA, 0.02% Brij35, 0.02 mg/ml BSA, 0.1 mM Na3VO4, 2 mM DTT, 1% DMSO) at a concentration of 20 μM. DYRK1B was added to the substrate solution in a concentration of 0.3 nM and gently mixed. Dilution series of the compounds according to the present invention in DMSO were prepared. Each dilution was added to a batch of the above reaction mix, followed 20 min later by addition of a mixture of ATP and ^33P ATP (specific activity 0.01 μCi/μl final) to a final concentration of 10 μM. Reactions were carried out at 25° C. for 120 min, followed by spotting the reactions onto P81 ion exchange filter paper. Unbound phosphate was removed by extensive washing of the filters in 0.75% phosphoric acid. […] IC50 values and curve fits were obtained using Prism (Graph Pad Software). DYRK1B used in the above assays are further described in the below table: [table] Exemplary compound dilution series, final concentrations of compound in the assay vessel; the individual concentrations and the range of concentrations covered by the dilution series may differ for each compound, as long as enough data points are obtained to determine the compound's IC50: DYRK 1[…].
Chain of DYRK1B (Q9Y463 whole entry): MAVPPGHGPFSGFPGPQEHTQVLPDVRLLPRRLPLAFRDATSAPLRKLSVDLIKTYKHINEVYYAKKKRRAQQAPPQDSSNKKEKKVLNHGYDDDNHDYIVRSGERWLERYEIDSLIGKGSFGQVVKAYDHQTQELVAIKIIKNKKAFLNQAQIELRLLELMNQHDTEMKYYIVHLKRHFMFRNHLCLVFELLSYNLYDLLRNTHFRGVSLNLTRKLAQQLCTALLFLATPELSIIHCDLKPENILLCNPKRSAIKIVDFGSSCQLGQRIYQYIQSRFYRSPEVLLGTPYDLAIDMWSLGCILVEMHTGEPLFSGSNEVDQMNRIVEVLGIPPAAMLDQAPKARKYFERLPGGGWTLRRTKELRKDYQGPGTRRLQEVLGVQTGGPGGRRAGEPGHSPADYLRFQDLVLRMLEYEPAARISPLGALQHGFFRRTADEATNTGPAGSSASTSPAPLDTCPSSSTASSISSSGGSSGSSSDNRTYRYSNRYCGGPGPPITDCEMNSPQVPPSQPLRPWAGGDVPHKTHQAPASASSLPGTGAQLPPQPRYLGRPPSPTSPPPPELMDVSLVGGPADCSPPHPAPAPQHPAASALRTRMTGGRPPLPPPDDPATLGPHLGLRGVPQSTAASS

For `O=C(Nc1nc2cc(OC(F)(F)F)ccc2[nH]1)c1csc(-c2ccc3c(c2)CCO3)n1` [Compound 14, 2-(2,3-Dihydrobenzofuran-5-yl)-N-(6-(trifluoromethoxy)-1H-benzo[d]imidazol-2-yl)thiazole-4-carboxamide], the values for the half-inhibitory concentration (IC50) in assay [1] and in assay [2] were 1000 to 3000 nM and 29.4 nM, respectively.
For `COc1cccc(-c2c[nH]c(NC(=O)c3csc(-c4ccc5c(c4)CCO5)n3)n2)c1` [Compound 13, 2-(2,3-Dihydrobenzofuran-5-yl)-N-(4-(3-methoxyphenyl)-1H-imidazol-2-yl)thiazole-4-carboxamide] the same measures were 1000 to 3000 nM and 111 nM.
For `O=C(Nc1nc2cc(C(=O)N3CCCC3)ccc2[nH]1)c1csc(-c2ccc3c(c2)CCO3)n1` [Compound 22, 2-(2,3-Dihydrobenzofuran-5-yl)-N-(5-(pyrrolidine-1-carbonyl)-1H-benzo[d]imidazol-2-yl)thiazole-4-carboxamide] the same measures were less than 1000 nM and 0.852 nM.
For `N#Cc1ccc2[nH]c(NC(=O)c3csc(-c4ccc5c(c4)CCO5)n3)nc2c1` [Compound 1, N-(5-Cyano-1H-benzo[d]imidazol-2-yl)-2-(2,3-dihydrobenzofuran-5-yl)thiazole-4-carboxamide], in that order: 1000 to 3000 nM and 1.38 nM.
In the case of `O=C(Nc1nc2cc(Cl)ccc2[nH]1)c1csc(-c2ccc3c(c2)CCO3)n1` [Compound 6, N-(5-Chloro-1H-benzo[d]imidazol-2-yl)-2-(2,3-dihydrobenzofuran-5-yl)thiazole-4-carboxamide], the IC50 in assay [1] was 1000 to 3000 nM; in assay [2], 1.9 nM.
For `O=C(Nc1nnc(C(=O)N2CCOCC2)[nH]1)c1csc(-c2ccc3c(c2)CCO3)n1` [Compound 26, 2-(2,3-Dihydrobenzofuran-5-yl)-N-(5-(morpholine-4-carbonyl)-4H-1,2,4-triazol-3-yl)thiazole-4-carboxamide], in that order: 3000 to 10000 nM and 85 nM.
For `O=C(Nc1nc(-c2cccnc2)n[nH]1)c1csc(-c2ccc3c(c2)CCO3)n1` [Compound 45, 2-(2,3-Dihydrobenzofuran-5-yl)-N-(3-(pyridin-3-yl)-1H-1,2,4-triazol-5-yl)thiazole-4-carboxamide] the same measures were 1000 to 3000 nM and 2.81 nM.
For `CN1CCN(c2ccc3nc(NC(=O)c4csc(-c5ccc6c(c5)CCO6)n4)sc3c2)CC1` [Compound 41, 2-(2,3-Dihydrobenzofuran-5-yl)-N-(6-(4-methylpiperazin-1-yl)benzo[d]thiazol-2-yl)thiazole-4-carboxamide] the same measures were 3000 to 10000 nM and 19.5 nM.
Consider `CCN1CCN(C(=O)c2ccc3[nH]c(NC(=O)c4csc(-c5ccc6c(c5)CCO6)n4)nc3c2)CC1` [Compound 47, 2-(2,3-Dihydrobenzofuran-5-yl)-N-(5-(4-ethylpiperazine-1-carbonyl)-1H-benzo[d]imidazol-2-yl)thiazole-4-carboxamide], for which the IC50 was less than 1000 nM in assay [1] and 2.17 nM in assay [2].
For `O=C(Nc1ccccn1)c1csc(-c2ccc3c(c2)CCO3)n1` [Compound 17, 2-(2,3-Dihydrobenzofuran-5-yl)-N-(pyridin-2-yl)thiazole-4-carboxamide], in that order: 3000 to 10000 nM and 29.4 nM.
For `O=C(Nc1nc2c(C(F)(F)F)cccc2[nH]1)c1csc(-c2ccc3c(c2)CCO3)n1` [Compound 12, 2-(2,3-Dihydrobenzofuran-5-yl)-N-(4-(trifluoromethyl)-1H-benzo[d]imidazol-2-yl)thiazole-4-carboxamide] the same measures were 3000 to 10000 nM and 156 nM.
For `O=C(NCC1CCCO1)c1ccc2[nH]c(NC(=O)c3csc(-c4ccc5c(c4)CCO5)n3)nc2c1` (stereo not drawn) [Compound 35, 2-(2,3-Dihydrobenzofuran-5-yl)-N-(5-(((tetrahydrofuran-2-yl)methyl)carbamoyl)-1H-benzo[d]imidazol-2-yl)thiazole-4-carboxamide], the results for the IC50 in assay [1] and in assay [2] were less than 1000 nM and less than 0.5 nM, respectively.
For `Cc1n[nH]c(NC(=O)c2csc(-c3ccc4c(c3)CCO4)n2)n1` [Compound 44, 2-(2,3-Dihydrobenzofuran-5-yl)-N-(3-methyl-1H-1,2,4-triazol-5-yl)thiazole-4-carboxamide] the same measures were 3000 to 10000 nM and 60.1 nM.
For the compound `O=C(Nc1ncc[nH]1)c1csc(-c2ccc3c(c2)CCO3)n1` [Compound 11, 2-(2,3-Dihydrobenzofuran-5-yl)-N-(1H-imidazol-2-yl)thiazole-4-carboxamide], the results for the IC50 in assay [1] and in assay [2] were 1000 to 3000 nM and 66.8 nM, respectively.
For `CNC(=O)c1n[nH]c(NC(=O)c2csc(-c3ccc4c(c3)CCO4)n2)n1` [Compound 19, 2-(2,3-Dihydrobenzofuran-5-yl)-N-(3-(methylcarbamoyl)-1H-1,2,4-triazol-5-yl)thiazole-4-carboxamide], in that order: 1000 to 3000 nM and 9.68 nM.
For `CN1CCN(C(=O)c2nnc(NC(=O)c3csc(-c4ccc5c(c4)CCO5)n3)[nH]2)CC1` [Compound 27, 2-(2,3-Dihydrobenzofuran-5-yl)-N-(5-(4-methylpiperazine-1-carbonyl)-4H-1,2,4-triazol-3-yl)thiazole-4-carboxamide], in that order: 3000 to 10000 nM and 49.8 nM.
For `O=C(Nc1nc(SCc2ccccc2)n[nH]1)c1csc(-c2ccc3c(c2)CCO3)n1` [Compound 32, N-(3-(Benzylthio)-1H-1,2,4-triazol-5-yl)-2-(2,3-dihydrobenzofuran-5-yl)thiazole-4-carboxamide] the same measures were 3000 to 10000 nM and 1350 nM.
With `O=C(Nc1nc2cc(C(=O)N3CCN(CC4CCCO4)CC3)ccc2[nH]1)c1csc(-c2ccc3c(c2)CCO3)n1` (stereo not drawn) [Compound 8, 2-(2,3-Dihydrobenzofuran-5-yl)-N-(5-(4-((tetrahydrofuran-2-yl)methyl)piperazine-1-carbonyl)-1H-benzo[d]imidazol-2-yl)thiazole-4-carboxamide], the half-maximal inhibitory concentration (IC50) in assay [1] was less than 1000 nM; in assay [2], 3.11 nM.
For `COCCNC(=O)c1ccc2[nH]c(NC(=O)c3csc(-c4ccc5c(c4)CCO5)n3)nc2c1` [Compound 23, 2-(2,3-Dihydrobenzofuran-5-yl)-N-(5-((2-methoxyethyl)carbamoyl)-1H-benzo[d]imidazol-2-yl)thiazole-4-carboxamide], in that order: less than 1000 nM and 0.699 nM.
For `CN(C)C(=O)c1ccc2[nH]c(NC(=O)c3csc(-c4ccc5c(c4)CCO5)n3)nc2c1` [Compound 7, 2-(2,3-Dihydrobenzofuran-5-yl)-N-(5-(dimethylcarbamoyl)-1H-benzo[d]imidazol-2-yl)thiazole-4-carboxamide] the same measures were less than 1000 nM and 1.74 nM.
Regarding `O=C(Nc1nc(-c2ccco2)n[nH]1)c1csc(-c2ccc3c(c2)CCO3)n1` [Compound 46, 2-(2,3-Dihydrobenzofuran-5-yl)-N-(3-(furan-2-yl)-1H-1,2,4-triazol-5-yl)thiazole-4-carboxamide], the IC50 was 3000 to 10000 nM in assay [1] and 15.3 nM in assay [2].
